From patent US12122750B2, “AT2R antagonists and uses thereof” (Eli Lilly and Company, priority 2022, dated 2024)
Each block holds one molecule with its values, some of them ahead of it.

Key:
[1] = target: recombinant human angiotensin-II receptor subtype I (hAT1R) (Homo sapiens (Human), UniProt P30556); assay: Competitive radioligand binding assay (SPA), hAT1R/CHO membranes; details: [125I]-Tyr4-Angiotensin-II, read-out: AT1R Ki
Description: Membranes hATIR/CHO were Purchased from PerkinElmer, Inc.
Cellular membranes prepared from Chinese hamster ovary (CHO) cells which expressed recombinant human angiotensin-II receptor subtype I (hAT1R), were purchased from PerkinElmer (Catalog Number ES-072-M400UA).
(§1) Receptor Binding Protocol
(§2) The assays were performed with a scintillation proximity assay (SPA) method using polyvinyltoluene (PVT) wheat germ agglutinin-coupled SPA beads (Perkin Elmer Cat. #RPNQ0001). Assay buffer containing BSA (50 mM Tris-HCl, pH 7.5, 150 mM NaCl, 0.1% w/v fatty-acid free BSA) was used for preparing radioligand, membrane and SPA bead reagent dilution to working stock concentrations. Reference control and test compounds were diluted to obtain ten-point concentration response curves using a four-fold serial dilution protocol onto assay plates, dispensed acoustically from DMSO stock using automated ECHO instrument technology (Labcyte, Inc.). Concentration response curves were routinely generated with the highest final assay concentration for the reference angiotensin-II control at 50 nM, and the highest final assay concentration for the test compounds at 50 μM. […] The hAT2R membrane was combined with PVT-WGA SPA beads to obtain a final assay concentration of 0.25 μg/well hAT2R membrane+0.1 mg/well PVT-WGA SPA bead. And the hAT1R membrane PVT-WGA SPA bead final concentrations was 0.5 μg/well hAT1R membrane+0.1 mg/well PVT-WGA SPA bead. […] For all assays, radioligand addition was followed by the addition of membrane-SPA bead mixture, i.e., the hAT2R membrane-SPA bead mixture (30 μL), the rAT2R membrane-SPA bead mixture, or the AT1R membrane-SPA bead mixture (30 μL) into the assay plate. All dispensing steps were added using a Multiflo FX (Biotek, Inc.) bulk dispensing instrument. After reagent addition steps, assay plates were sealed, and plate contents mixed for one minute on a benchtop micro-plate shaker. Following a 10-hour incubation at room temperature to allow for bead settling and radioligand binding, bound radioactivity was quantitated using a Microbeta Trilux scintillation counter (Perkin Elmer) and expressed as counts per minute (CPM). The unlabeled angiotensin-II control was included on each plate as an experimental assay reference.
(§3) Compounds were tested in a 10-point concentration response curve (CRC) format, with each plate containing the positive control angiotensin-II positive reference compound, and experimental compounds. Maximum binding response (Max) was determined in 32 control wells per plate using assay buffer treatment only, and the minimum binding controls or nonspecific binding response (Min) was also determined in 32 wells per plate by the treatment with 50 nM angiotensin-II. All test sample concentration responses were normalized to the control response and calculated as a percent of the maximal response after correcting for nonspecific binding as shown below: % Specific inhibition=100%−[(CPM−Min)/(Max−Min)×100%]
(§4) Percent specific binding (y-axis) was plotted versus the log concentration of compound (x-axis).
Binding affinities for compounds of the present disclosure were determined according to the assay described herein.
Binding affinities for compounds of the present disclosure were determined according to the assay described above.

[2] = target: recombinant human angiotensin-II receptor subtype 2 (hAT2R) (Homo sapiens (Human), UniProt P50052); assay: Competitive radioligand binding assay (SPA), hAT2R HEK293 membranes; details: [125I]-Tyr4-Angiotensin-II, read-out: AT2R Ki
Summary of the method: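 SPA competition binding on membranes from HEK293 cells stably transfected with hAT2R (0.25 μg/well, with 0.1 mg/well PVT-WGA beads) in 50 mM Tris-HCl pH 7.5, 150 mM NaCl, 0.1% fatty-acid-free BSA. Ten-point four-fold dilution curves ran from 50 μM top final concentration. Bound radioactivity was counted (CPM) after 10 h at room temperature.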

AT2R [3] = target: T1, AT2R (Rattus norvegicus (Rat), UniProt P35351); assay: AT2R ex vivo autoradiography receptor occupancy in rat adrenal sections after oral dosing; parameters: species or system Sprague Dawley rats; details: for IC50 / IC80: plasma concentration plotted vs % receptor occupancy, rat; for ex vivo IC50 (TER) / ex vivo IC80 (TER): rat receptor occupancy; for receptor occupancy at 10 mg/kg: oral dose 10 mg/kg; for receptor occupancy at 30 mg/kg: oral dose 30 mg/kg; for receptor occupancy at 100 mg/kg: oral dose 100 mg/kg; for receptor occupancy at 3 mg/kg: oral dose 3 mg/kg
Description: The ability for a compound to engage its target may be measured by determining compound's receptor occupancy. An ex vivo autoradiography assay was conducted as described herein.
Twenty male Sprague Dawley rats (140-150 gms, Envigo) were maintained under controlled laboratory conditions on a 12 hr light cycle with ad lib access to food and water. […] Following a pre-determined survival time, plasma and adrenals were collected and frozen at −80° C. until analyzed. Frozen 20 μm sections of an adrenal from each animal were collected onto gelatin-coated slides and stored at −80° C. […] The specific ligand binding for each animal is calculated by subtracting the non-specific binding from the total bound.

rAT2R = rAT2R (Rattus norvegicus (Rat), UniProt P35351); assay: Rat binding affinity, competitive radioligand binding assay (SPA), rAT2R HEK293 membranes; details: rat AT2R
Description: Membrane Preparation Protocol (hAT2R HEK293 and rAT2R HEK293)
as §1, §2, §3, §4

AT2R [4] = target: T1, AT2R; assay: Inhibition of C21-induced increase in dermal blood flow (laser Doppler imaging); format: in vivo, Sprague Dawley rats
[5] = Plasma concentration of test compound in the receptor occupancy study; format: in vivo, Sprague Dawley rats; details: rat
Description: Twenty male Sprague Dawley rats (140-150 gms, Envigo) were maintained under controlled laboratory conditions on a 12 hr light cycle with ad lib access to food and water. On the morning of the experiment, rats were orally dosed with vehicle (1% (w/v) hydroxyethylcellulose, 0.25% (w/v) polysorbate 80, 0.05% (v/v) antifoam 1510-US in purified water) or appropriate doses of test compound (5 mL/kg, n=4 rats/group) using the same vehicle. Following a pre-determined survival time, plasma and adrenals were collected and frozen at −80° C. until analyzed. Frozen 20 μm sections of an adrenal from each animal were collected onto gelatin-coated slides and stored at −80° C. Autoradiography to detect AT2R occupancy (RO) was conducted under cold conditions using methods modified from F. M. J. Heemskerk, et al, Brain Research 677 (1995) 29-38. Total binding was defined by 0.3 nM ^125I-CGP42112 (selective AT2R agonist, Perkin Elmer, Inc) with the addition of 10 μM unlabeled AngII used to define non-specific binding. Following exposure to a phosphoimager plate (BAS TR2025, GE Healthcare), the bound radioactivity is calculated with use of MCID software (Imaging Research, Inc) and calibrated ^125I standards (American Radiolabeled Chemicals, Inc). The specific ligand binding for each animal is calculated by subtracting the non-specific binding from the total bound.

T1 sequence (P35351 whole entry): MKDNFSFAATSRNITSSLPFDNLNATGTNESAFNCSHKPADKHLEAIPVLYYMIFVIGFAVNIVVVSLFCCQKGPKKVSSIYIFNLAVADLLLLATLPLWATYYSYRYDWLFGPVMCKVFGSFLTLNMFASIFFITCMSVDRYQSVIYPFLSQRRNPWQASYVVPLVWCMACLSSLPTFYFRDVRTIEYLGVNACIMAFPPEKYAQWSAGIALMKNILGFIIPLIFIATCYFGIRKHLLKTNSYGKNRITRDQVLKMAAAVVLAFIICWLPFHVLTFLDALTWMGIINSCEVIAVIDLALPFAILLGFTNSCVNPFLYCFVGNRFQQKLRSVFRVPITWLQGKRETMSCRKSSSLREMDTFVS
Sequence of rAT2R (P35351 whole entry): as above
Sequence of recombinant human angiotensin-II receptor subtype 2 (hAT2R) (P50052 whole entry): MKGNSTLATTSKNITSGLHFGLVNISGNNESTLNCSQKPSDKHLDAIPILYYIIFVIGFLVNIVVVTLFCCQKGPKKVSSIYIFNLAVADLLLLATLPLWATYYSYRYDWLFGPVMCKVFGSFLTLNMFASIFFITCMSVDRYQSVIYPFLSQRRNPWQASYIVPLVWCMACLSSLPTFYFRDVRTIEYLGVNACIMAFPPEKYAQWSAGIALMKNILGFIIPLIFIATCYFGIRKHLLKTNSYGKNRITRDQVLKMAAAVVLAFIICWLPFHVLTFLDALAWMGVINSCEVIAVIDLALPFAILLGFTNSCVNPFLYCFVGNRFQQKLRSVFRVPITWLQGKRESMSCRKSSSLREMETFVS
Sequence of recombinant human angiotensin-II receptor subtype I (hAT1R) (P30556 whole entry): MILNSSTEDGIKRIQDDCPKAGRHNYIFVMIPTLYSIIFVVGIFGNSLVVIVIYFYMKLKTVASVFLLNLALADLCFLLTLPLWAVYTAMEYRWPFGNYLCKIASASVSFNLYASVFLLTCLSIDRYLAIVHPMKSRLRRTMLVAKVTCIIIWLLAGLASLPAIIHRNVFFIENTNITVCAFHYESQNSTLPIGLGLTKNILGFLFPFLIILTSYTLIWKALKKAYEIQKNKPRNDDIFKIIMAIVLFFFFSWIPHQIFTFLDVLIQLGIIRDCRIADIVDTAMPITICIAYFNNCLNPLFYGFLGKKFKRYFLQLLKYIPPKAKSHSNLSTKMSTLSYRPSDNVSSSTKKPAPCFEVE

SMILES: O=C(N1CCC(CC(=O)N(c2ccccc2)C2CCCC(F)(F)C2)(C(=O)O)CC1)N1CCc2ccccc21 (racemic) [Example 35, 4-[2-(N-(3,3-difluorocyclohexyl)anilino)-2-oxo-ethyl]-1-(indoline-1-carbonyl)piperidine-4-carboxylic acid]
Ki [1]: 37300 nM | Ki [2]: 2.79 nM

SMILES: N#Cc1ccc2c(c1)N(C(=O)N1CCC(CC(=O)N(c3ccccc3)C3CCCC(F)(F)C3)(C(=O)O)CC1)CC2 (racemic) [Example 47, 1-(6-cyanoindoline-1-carbonyl)-4-[2-(N-(3,3-difluorocyclohexyl)anilino)-2-oxo-ethyl]piperidine-4-carboxylic acid]
Ki [1]: 37300 nM | Ki [2]: 1.34 nM

SMILES: CN(C(=O)N1CCC(CC(=O)N(c2cccc(F)c2)C2CCCC(F)(F)C2)(C(=O)O)CC1)c1ccccc1 (racemic) [Example 53, 4-[2-(N-(3,3-difluorocyclohexyl)-3-fluoro-anilino)-2-oxo-ethyl]-1-[methyl(phenyl)carbamoyl]piperidine-4-carboxylic acid]
Ki [1]: 37300 nM | Ki [2]: 0.342 nM

SMILES: O=C(CC1(C(=O)O)CCN(C(=O)C2(c3ccccc3F)CC2)CC1)N(c1ccccc1)C1CCCC(F)(F)C1 (racemic) [Example 66, 4-[2-(N-(3,3-difluorocyclohexyl)anilino)-2-oxo-ethyl]-1-[1-(2-fluorophenyl)cyclopropanecarbonyl]piperidine-4-carboxylic acid]
Ki [1]: 37300 nM | Ki [2]: 0.619 nM

SMILES: CC(C)(C(=O)N1CCC(CC(=O)N(c2ccccc2)C2CCCC(F)(F)C2)(C(=O)O)CC1)c1ccccc1F (racemic) [Example 67, 4-[2-(N-(3,3-difluorocyclohexyl)anilino)-2-oxo-ethyl]-1-[2-(2-fluorophenyl)-2-methyl-propanoyl]piperidine-4-carboxylic acid]
Ki [1]: 37300 nM | Ki [2]: 2.31 nM

SMILES: CCCCCN(C)C(=O)N1CCC(CC(=O)N(c2ccccc2)c2ccccc2)(C(=O)O)CC1 [Example 1, 1-[methyl(pentyl)carbamoyl]-4-[2-oxo-2-(N-phenylanilino)ethyl]piperidine-4-carboxylic acid]
IC50 (AT2R [3]): 5.64 nM | IC80 (AT2R [3]): 22.6 nM | receptor occupancy at 3 mg/kg (AT2R [3]; rat adrenal, read-out: % RO): 23.4% | receptor occupancy at 10 mg/kg (AT2R [3]; rat adrenal, read-out: % RO): 44.6% | receptor occupancy at 30 mg/kg (AT2R [3]; rat adrenal, read-out: % RO): 41.6% | receptor occupancy at 100 mg/kg (AT2R [3]; rat adrenal, read-out: % RO): 54.6% | ex vivo IC50 (TER) (AT2R [3]): 0.200 TER | ex vivo IC80 (TER) (AT2R [3]): 0.800 TER | Ki (rAT2R): 28.2 nM | [plasma, free, nM] ([5]; oral dose 3 mg/kg): 0.729 nM | [plasma, free, nM] ([5]; oral dose 10 mg/kg): 2.25 nM | [plasma, free, nM] ([5]; oral dose 30 mg/kg): 6.42 nM | [plasma, free, nM] ([5]; oral dose 100 mg/kg): 10.4 nM

SMILES: CN(C(=O)N1CCC(CC(=O)N(c2ccccc2)c2ccccc2)(C(=O)O)CC1)c1ccc(F)cc1 [Example 2, 1-[(4-fluorophenyl)-methyl-carbamoyl]-4-[2-oxo-2-(N-phenylanilino)ethyl]piperidine-4-carboxylic acid]
Ki [1]: 37300 nM | [plasma, free, nM] ([5]; oral dose 0.01 mg/kg): 0.0697 nM | [plasma, free, nM] ([5]; oral dose 0.03 mg/kg): 0.0403 nM | [plasma, free, nM] ([5]; oral dose 0.3 mg/kg): 0.153 nM | [plasma, free, nM] ([5]; oral dose 3 mg/kg): 0.772 nM

SMILES: CN(C(=O)N1CCC(CC(=O)N(c2ccccc2)c2ccc(F)cc2)(C(=O)O)CC1)c1ccc(F)cc1 [compound 30, 4-[2-(N-(4-fluorophenyl)anilino)-2-oxo-ethyl]-1-[(4-fluorophenyl)-methyl-carbamoyl]piperidine-4-carboxylic acid]
receptor occupancy at 0.01 mg/kg (AT2R [3]; rat adrenal, oral dose 0.01 mg/kg, read-out: % RO): 30.4% | receptor occupancy at 0.03 mg/kg (AT2R [3]; rat adrenal, oral dose 0.03 mg/kg, read-out: % RO): 3.46% | receptor occupancy at 0.3 mg/kg (AT2R [3]; rat adrenal, oral dose 0.3 mg/kg, read-out: % RO): 45.6% | receptor occupancy at 3 mg/kg (AT2R [3]; rat adrenal, read-out: % RO): 88.7% | Ki (rAT2R): 0.6 nM

Next, values leading:

Ki [1]: 37300 nM | Ki [2]: 1.03 nM
SMILES: O=C(N1CCC(CC(=O)N(c2ccccc2)C2CCCC(F)(F)C2)(C(=O)O)CC1)N1CCc2ccccc21 (single isomer, unassigned) [Example 35B, 4-[2-(N-(3,3-difluorocyclohexyl)anilino)-2-oxo-ethyl]-1-(indoline-1-carbonyl)piperidine-4-carboxylic acid]

Ki [1]: > 49900 nM | IC50 (AT2R [3]): 1.58 nM | IC80 (AT2R [3]): 3.82 nM | ex vivo IC50 (TER) (AT2R [3]): 2.358 TER | ex vivo IC80 (TER) (AT2R [3]): 5.701 TER | Ki [2]: 1.28 nM | Ki (rAT2R): 0.67 nM
SMILES: O=C(CC1(C(=O)O)CCN(c2ccccn2)CC1)N(c1ccccc1)C1CCCC(F)(F)C1 (single isomer, unassigned) [Example 74B, 4-(2-((3,3-difluorocyclohexyl)(phenyl)amino)-2-oxoethyl)-1-(pyridin-2-yl)piperidine-4-carboxylic acid]

IC50 (AT2R [3]): 0.483 nM | IC80 (AT2R [3]): 3.03 nM | receptor occupancy at 10 mg/kg (AT2R [3]; rat adrenal, read-out: % RO): 17.3% | receptor occupancy at 30 mg/kg (AT2R [3]; rat adrenal, read-out: % RO): 84.7% | receptor occupancy at 100 mg/kg (AT2R [3]; rat adrenal, read-out: % RO): 93.7% | ex vivo IC50 (TER) (AT2R [3]): 0.108 TER | ex vivo IC80 (TER) (AT2R [3]): 0.678 TER | Ki (rAT2R): 4.47 nM | inhibition at 1 mg/kg (AT2R [4]; dose 1 mg/kg, C21-induced increase in dermal blood flow): 7.8% | inhibition at 3 mg/kg (AT2R [4]; dose 3 mg/kg, C21-induced increase in dermal blood flow): 47.2% | inhibition at 10 mg/kg (AT2R [4]; dose 10 mg/kg, C21-induced increase in dermal blood flow): 67.6% | inhibition at 30 mg/kg (AT2R [4]; C21-induced increase in dermal blood flow): 86.9% | inhibition at 30 mg/kg (AT2R [4]; second, unlabelled column under % Inhibition): 97.3% | [plasma, free, nM] ([5]; oral dose 1 mg/kg): 6.39 nM | [plasma, free, nM] ([5]; oral dose 3 mg/kg): 18.9 nM | [plasma, free, nM] ([5]; oral dose 30 mg/kg): 6.28 nM | [plasma, free, nM] ([5]; oral dose 100 mg/kg): 15.7 nM
SMILES: COc1ccc2c(c1OCc1ccccc1)C[C@@H](C(=O)O)N(C(=O)C(c1ccccc1)c1ccccc1)C2 [EMA401, Olodanrigan, reference compound]
